Values joined by “and” are separate entries in the source; they are usually repeats but may differ in a detail not shown here. Equal entries are not always repeated. Structures can show the parent of a compound that is named as a salt.
B1: LEF1 IRES: human LEF1 5'UTR (1.178 kb) internal ribosome entry site, SEQ ID NO:1, in dicistronic vector pRSTF-LEF(1.2) (nucleic acid, listed as Homo sapiens)
DNA: TCAGCGCCGGCGAGGCGCGGGAGGAGGAGAAGCAGTGGGGAGGCGCAGCCGCTCACCTGCGGGGCAGGGCGCGGAGGAGGGACCCGGGCTGCGCGCTCTCGGGCCGAGGAACCAGGACGCGCCCGGAGCCTCGCACGCGGCCAAGCTCGGGGCGTCCCCTCCCCTCGGCCGGGCGAACTCAAGGGGCGCAGCTCTTTGCTTTGACAGAGCTGGCCGGCGGAGGCGTGCAGAGCGGCGAGCCGGCGAGCCAGGCTGAGAAACTCGAGCCGGGAACAAAGAGGGGTCGGACTGAGTGTGTGTGTCGGCTCGAGCTCCGGGCAGAGGCATTTGGGCCCGAGGCCCCCGCTGTGACTCCCCGAGACTCCGCAGTGCCCTCCACTGCGGAGTCCCCGCGCTTGCCGGCAAAAACTTTATTCTTGGCAAACTTCTCTTTCTCTTCCCCTCCTCCTCGGCCCCCATCTTCTGCTCCTCCTCCTTCTCTAGCAGATTAAATGAGCCTCGAGAAGAAAAACCGAAGCGAAAGGGAAGAAAATAAGAAGATCTAAAACGGACATCTCCAGCGTGGGTGGCTCCTTTTTCTTTTTCTTTTTTTCCCACCCTTCAGGAAGTGGACGTTTCGTTATCTTCTGATCCTTGCACCTTCTTTTGGGGCAAACGGGGCCCTTCTGCCCAGATCCCCTCTCTTTTCTCGGAAAACAAACTACTAAGTCGGCATCCGGGGTAACTACAGTGGAGAGGGTTTCCGCGGAGACGCGCCGCCGGACCCTCCTCTGCACTTTGGGGAGGCGTGCTCCCTCCAGAACCGGCGTTCTCCGCGCGCAAATCCCGGCGACGCGGGGTCGCGGGGTGGCCGCCGGGGCAGCCTCGTCTAGCGCGCGCCGCGCAGACGCCCCCGGAGTCGCCAGCTACCGCAGCCCTCGCCGCCCAGTGCCCTTCGGCCTCGGGGGCGGGCGCCTGCGTCGGTCTCCGCGAAGCGGGAAAGCGCGGCGGCCGCCGGGATTCGGGCGCCGCGGCAGCTGCTCCGGCTGCCGGCCGGCGGCCCCGCGCTCGCCCGCCCCGCTTCCGCCCGCTGTCCTGCTGCACGAACCCTTCCAACTCTCCTTTCCTCCCCCACCCTTGAGTTACCCCTCTGTCTTTCCTGCTGTTGCGCGGGTGCTCCCACAGCGGAGCGGAGATTACAGAGCCGCCGGGATGCCCCAACTCTCCGGAGGAGGTGGCGGCGGCGGGGGGGACCCGGAACTCTGCGCCACGGACGAGATGA
modifications: (298)..(1095) IRES Sequence; (298)..(656) IRES Module 1; (656)..(1095) IRES Module 2

Columns and labels:
LEF-1 IRES [1] = experiment: Dicistronic DNA transfection dual luciferase assay, LEF-1 IRES, K562 cells; type: cell-based; conditions: 2 μM imatinib, 24 hour treatment
LEF1 mRNA = experiment: Northern blot of LEF1 mRNA in K562 cells; type: cell-based; conditions: 2 μM imatinib, 24 hours; for decrease of LEF1 mRNA levels (3.6 kb and 3.0 kb mRNAs): rapamycin 10 ng/mL or both, not normalized
Method: Total RNA was isolated from K562 cells using TriZol reagent (Invitrogen) according to the manufacturer's instructions. […] Approximately 20 μg of total RNA from K562 cells was analyzed on a Northern blot for LEF1 expression, respectively. Northern blotting was carried out as described elsewhere and the LEF1 ORF (open reading frame) probe was generated as described elsewhere and radiolabeled with ^32P-dATP. The blot was stripped and rehybridized with a ^32P-dATP radioloabeled GAPDH loading control probe.
Panel B: Northern blot analysis of total RNA isolated from K562 cells treated with inhibitors as described above. The three LEF1 mRNAs are indicated by arrows. A radiolabeled LEF-1 ORF cDNA probe was used to detect LEF1 mRNAs in the top panel. The blot was stripped and reprobed with GAPDH.

GAPDH mRNA = experiment: Northern blot of GAPDH mRNA (loading control) in K562 cells; type: cell-based; conditions: 2 μM imatinib, 24 hours
CVB3 IRES [2] = experiment: Capped dicistronic RNA transfection, CVB3 IRES firefly luciferase, K562 cells; type: cell-based; conditions: 2 μM imatinib, 24 hours
Method: (§1) The capped dicistronic mRNAs were generated by in vitro transcription of the dicistronic (linearized with PMEI) plasmid using the T7-based Megascript in vitro transcription kit (Ambion) as per the manufacturer's protocol. The integrity of the transcripts was analyzed on a 1% agarose gel.
(§2) Approximately 6×10^5 cells (K562) were seeded in 6-well plates and 2 μg of in vitro synthesized dicistronic mRNA was transfected per well using the Transmessenger transfection kit (Qiagen). A ratio of 1:6 (1 μg of RNA: 6 μL of transmessenger reagent) was used according to the manufacturer's instructions. […] Cell lysates were then assayed for luciferase activities as described above. All transfections were performed in duplicate and carried out 3 times.
(§3) To determine whether Bcr-Abl regulation is compartmentalized and further examine whether it functions post-transcriptionally, an RNA transient transfection was carried out in K562 cells. […] In these experiments the inventors again utilized CVB3 as a control for regulation in subcellular compartments since it predominantly depends on cytoplasmic machinery for translation.

LEF-1 IRES [3] = experiment: Capped dicistronic RNA transfection, LEF-1 IRES firefly luciferase, K562 cells; type: cell-based; conditions: 2 μM imatinib, 24 hours, p<0.001
Method: as §1, §2, §3

[4] = test system: cap-dependent translation (RLuc); experiment: Capped dicistronic RNA transfection, RLuc cap-dependent translation, K562 cells; type: cell-based; conditions: 2 μM imatinib, 24 hours
Method: as §1, §2, §3

[5] = test system: cap-dependent translation (RLuc); experiment: Dicistronic DNA transfection, RLuc cap-dependent translation, K562 cells; type: cell-based; conditions: 2 μM imatinib
[6] = test system: LEF-1 protein expression in K562 cells; experiment: LEF-1 protein expression in K562 cells, Western blot; type: cell-based; conditions: imatinib 2 uM, rapamycin 10 ng/mL or both, 24 hours
[7] = test system: LEF-1 protein expression in primary CML cells; experiment: LEF-1 protein expression in primary CML cells, Western blot; type: cell-based, human; conditions: rapamycin 10 ng/mL, 24 hours
Method: PB mononuclear cells (MNCs) were obtained by centrifugation through Ficoll-Hypaque, washed in PBS, and cryopreserved. To expand CML cells in vitro, cells were thawed and grown in media supplemented with 10% FBS and a growth factor cocktail consisting of 20 ng/ml granulocyte-macrophage colony stimulating factor, 20 ng/ml recombinant human interleukin 3, 20 ng/ml recombinant human stem cell factor, and 100 ng/ml granulocyte colony-stimulating factor. Following this, cells were incubated in liquid culture for 72-96 hrs, at 37° C. in a humidified atmosphere with 5% CO2 in serum-free medium (SFM) (StemCell Technologies, Vancouver, BC, Canada) supplemented with growth factors (GF) at concentrations similar to that found in stroma-conditioned medium. All cytokines were from PeproTech, Rocky Hills, N.J., except for GM-CSF (sargramostim, Immunex, Seattle, Wash.) and G-CSF (filgrastim, Amgen, Thousand Oaks, Calif.).

[8] = test system: cap-dependent translation (RLuc); experiment: Dicistronic DNA transfection, RLuc cap-dependent translation, Ba/F3-Bcr-Abl-WT cells; type: cell-based, murine; conditions: inhibitors for 6 hours
Method: (§4) For transfection of the dicistronic plasmids into Ba/F3 cells, approximately 10×10^6 cells were seeded in […] and 10 μg of the reporter plasmid was transfected via a BTX 600 electroporator. […] Cell lysates were prepared for dual luciferase assays 8 hours post-transfection. […] Cell lysates were prepared for dual luciferase assays 24 hours post-transfection. Transfections were performed in duplicate and each experiment was carried out at least 3 times.
Cell lysates were assayed for luciferase activities using the Dual Luciferase Reporter Assay System (Promega) according to the manufacturer's protocol. Assays were performed using a SIRIUS luminometer (Berthold Detection Systems). FLuc:RLuc ratios were calculated for each sample, and the average value is represented as fold elevation over background, which is the Firefly luciferase: Renilla luciferase ratio (FLuc:RLuc) measured from the vector in the absence of an insert.
(§5) The dicistronic vector depicted in FIG. 4A contains 2 cistrons separated by an intercistronic region that also contains a hairpin structure. […] A dicistronic construct that contains the full length 1.2 kb LEF1 5′UTR and IRES, the empty vector with no insert (pRSTF), and the viral IRES of the well characterized coxsackievirus B3 (CVB3) were analyzed for comparison. […]

LEF1 IRES = experiment: Dicistronic DNA transfection dual luciferase assay, LEF1 IRES, Ba/F3-Bcr-Abl-WT cells; type: cell-based, murine
Method: as §4
(§6) Cell lysates were assayed for luciferase activities using the Dual Luciferase Reporter Assay System (Promega) according to the manufacturer's protocol. Assays were performed using a SIRIUS luminometer (Berthold Detection Systems). FLuc:RLuc ratios were calculated for each sample, and the average value is represented as fold elevation over background, which is the Firefly luciferase: Renilla luciferase ratio (FLuc:RLuc) measured from the vector in the absence of an insert. […]
as §5

CVB3 IRES [9] = experiment: Dicistronic DNA transfection dual luciferase assay, CVB3 IRES, Ba/F3-Bcr-Abl-WT cells; type: cell-based, murine; conditions: 10 ng/mL rapamycin, 6 hours
Method: as §4, §6, §5

Row | Molecule | decrease in LEF-1 IRES activity (LEF-1 IRES [1]) [fold] | decrease in LEF-1 IRES activity (LEF-1 IRES [1]; listed as Imatinib) | decrease of LEF1 mRNA after normalizing with GAPDH mRNA levels (LEF1 mRNA) [fold] | decrease of LEF1 mRNA levels (3.6 kb and 3.0 kb mRNAs) (LEF1 mRNA) [fold] | reduction of GAPDH mRNA levels (GAPDH mRNA) [fold] | effect on CVB3 IRES activity (CVB3 IRES [2]) | reduction of LEF-1 IRES activity in the cytoplasm (LEF-1 IRES [3]) [%] | inhibition of RLuc translation, average [4] [fold] | reduction of RLuc translation, average [5] [fold] | LEF-1 protein levels [6] | LEF-1 protein levels [7] | decrease in RLuc activity (cap-dependent translation), average [8] [fold] | decrease in LEF-1 IRES activity (FLuc:RLuc) (LEF1 IRES; 10 ng/mL rapamycin, 6 hours) [%] | decrease in CVB3 IRES activity (FLuc:RLuc) (CVB3 IRES [9]) [%] | elevation in the FLuc:RLuc ratio over empty vector (LEF1 IRES; 8 hours post-transfection, no inhibitor) [fold]
1 | Cc1ccc(NC(=O)c2ccc(CN3CCN(C)CC3)cc2)cc1Nc1nccc(-c2cccnc2)n1 [imatinib, imatinib mesylate] | 2.3 | 3-4 fold and 3 fold | 2 | 3 | 1.4 | insensitive | 45 | 3.4 | 2.6 | significantly down-regulated | – | – | – | – | –
2 | CO[C@H]1C[C@@H]2CC[C@@H](C)[C@@](O)(O2)C(=O)C(=O)N2CCCC[C@H]2C(=O)O[C@H]([C@H](C)C[C@@H]2CC[C@@H](O)[C@H](OC)C2)CC(=O)[C@H](C)/C=C(\C)[C@@H](O)[C@@H](OC)C(=O)[C@H](C)C[C@H](C)/C=C/C=C/C=C/1C [rapamycin] | – | – | – | ~2 | – | – | – | – | – | no effect | no effect | 2 | 38 | 33 | –
3 | B1 | – | – | – | – | – | – | – | – | – | – | – | – | – | – | 55

Reference: US20080096228A1, “Compositions And Methods Relating To Mammalian Internal Ribosome Entry Sites” (THE REGENTS OF THE UNIVERSITY OF CALIFORNIA, priority 2006, published 2008)
